Source: PubChem BioAssay (NCI)
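Each compound was tested at five concentrations against cells in 96-well plates for 48 hours. Definition used: TGI = concentration required for complete inhibition of growth.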

Assays:
Assay in all cases: NCI tumour cell line growth inhibition, 48 h
EKVX NSCLC = tested on: EKVX NSCLC
SNB-19 CNS = tested on: SNB-19 CNS
NCI-H460 lung = tested on: NCI-H460 lung
HOP-92 NSCLC = tested on: HOP-92 NSCLC
M14 melanoma = tested on: M14 melanoma
OVCAR-8 ovarian = tested on: OVCAR-8 ovarian
DU-145 prostate = tested on: DU-145 prostate
KM12 colon = tested on: KM12 colon
UACC-62 melanoma = tested on: UACC-62 melanoma
IGROV1 ovarian = tested on: IGROV1 ovarian

SMILES | TGI (EKVX NSCLC) | TGI (SNB-19 CNS) | TGI (NCI-H460 lung) | TGI (HOP-92 NSCLC) | TGI (M14 melanoma) | TGI (OVCAR-8 ovarian) | TGI (DU-145 prostate) | TGI (KM12 colon) | TGI (UACC-62 melanoma) | TGI (IGROV1 ovarian)
Cc1ccc2nc3c(C)c(Cl)c(=O)cc-3sc2c1 | > 95.6 µM | > 100 µM | 97.4 µM | > 92.3 µM | 36.4 µM | > 100 µM | > 100 µM | 74.1 µM | 17.4 µM | > 100 µM
Cc1cc(C)c(S(=O)(=O)N(CCCCN)OCCCN)c(C)c1 | 31 µM | 34.5 µM | 33.4 µM | 34.5 µM | 35.9 µM | 32.8 µM | 29.4 µM | 35 µM | 30.7 µM | 29.4 µM
C#CCNC(Cc1cnc[nH]1)C(=O)O (stereo not given) | > 100 µM | > 100 µM | > 100 µM | > 100 µM | > 100 µM | > 100 µM | > 100 µM | > 100 µM | > 100 µM | > 100 µM
COc1ccc(C(O)c2ccc3c(c2)OCO3)cc1 (stereo not given) | > 100 µM | > 100 µM | > 100 µM | > 100 µM | > 100 µM | > 100 µM | > 100 µM | > 100 µM | > 100 µM | > 100 µM
O=C1/C(=C/c2ccccc2)CCc2ccc(Cl)nc21 | 38.3 µM | 41.5 µM | > 64 µM | 38.8 µM | 23.6 µM | > 100 µM | 24.4 µM | 7.15 µM | 22.8 µM | 17.7 µM
CCCn1c(C23CC4CC(CC(C4)C2)C3)nc2ccc(Cl)cc2c1=O | 95.4 µM | > 100 µM | > 100 µM | > 100 µM | > 100 µM | > 100 µM | 95.9 µM | > 100 µM | > 100 µM | > 100 µM
COC(=O)C1=C(O)C(C(=O)OC)[C@@]2(O)[C@@H](C(=O)OC)C(c3ccc(OC(=O)/C(=C/c4ccc(Cl)cc4)c4ccc(Cl)cc4)cc3)C[C@@H]1[C@@H]2C(=O)OC (stereo not given in full) | > 100 µM | > 100 µM | > 100 µM | > 100 µM | 41.8 µM | > 100 µM | > 100 µM | > 100 µM | 24 µM | > 100 µM
CN=C(Nn1cnnc1)OC | > 100 µM | > 100 µM | > 100 µM | > 100 µM | > 100 µM | > 100 µM | > 100 µM | > 100 µM | > 100 µM | > 100 µM
Cc1cc2ccccc2c[n+]1CC(O)C[n+]1cc2ccccc2cc1C | > 100 µM | > 100 µM | > 100 µM | > 100 µM | > 100 µM | > 100 µM | > 100 µM | > 100 µM | > 100 µM | > 100 µM
Cc1csc2c1C(=O)c1ccsc1C2=O | 20 µM | 9.98 µM | 3.46 µM | 12.5 µM | 2.02 µM | 11.3 µM | 3.29 µM | 11 µM | 3.07 µM | 11.8 µM
N#CC1=C(N)C(C#N)(C#N)C(c2ccc(F)cc2)C=C1C1CC1 (stereo not given) | 75.4 µM | 27.9 µM | 17.6 µM | 27 µM | 15.8 µM | 21.5 µM | 25.6 µM | 16 µM | 21.5 µM | 25.5 µM
O=C(O)C(CCc1ccccn1)c1ccccc1 (stereo not given) | > 100 µM | > 100 µM | > 100 µM | > 100 µM | > 100 µM | > 100 µM | > 100 µM | > 100 µM | > 100 µM | > 100 µM
CCOC(=O)c1cc2c(OC(C)=O)ccc(OC(C)=O)c2s1 | 7.73 µM | 19.9 µM | 22.2 µM | 3.16 µM | 3.26 µM | 3.51 µM | 17.1 µM | 17.6 µM | 4.08 µM | 6.52 µM
O=C(/C=C/c1ccc(-c2ccccc2[N+](=O)[O-])o1)NCc1ccc(C(=O)NCCc2ccccc2)cc1 | > 100 µM | > 100 µM | > 100 µM | > 100 µM | > 100 µM | > 100 µM | > 100 µM | > 100 µM | > 100 µM | > 100 µM
O=C(C1=C(C(=O)c2ccccc2)SC2(S1)C(C(=O)c1ccccc1)=C(C(=O)c1ccccc1)Sc1c2ssc1=O)c1ccccc1 | > 100 µM | 66.5 µM | > 100 µM | > 100 µM | > 100 µM | > 100 µM | > 100 µM | 92.7 µM | 44.9 µM | > 100 µM
Cc1cc2ccccc2n1CC(=O)NCC(C)C | > 100 µM | > 100 µM | > 100 µM | > 100 µM | > 100 µM | > 100 µM | > 100 µM | > 100 µM | > 100 µM | > 100 µM

SMILES | TGI (EKVX NSCLC) | TGI (SNB-19 CNS) | TGI (NCI-H460 lung) | TGI (HOP-92 NSCLC) | TGI (M14 melanoma) | TGI (OVCAR-8 ovarian) | TGI (DU-145 prostate) | TGI (KM12 colon) | TGI (UACC-62 melanoma) | TGI (IGROV1 ovarian)
OC1CCCC1C(O)(C(F)(F)F)C(F)(F)F (stereo not given) | > 100 µM | > 100 µM | > 100 µM | > 100 µM | > 100 µM | > 100 µM | > 100 µM | > 100 µM | > 100 µM | > 100 µM
CC[C@]12C=CCN3CCC4(c5cc(N=Nc6ccccc6)c(OC)cc5N(C)[C@H]4[C@@](O)(C(=O)OC)[C@@H]1OC(C)=O)[C@@H]32 (stereo not given in full) | 34.2 µM | 47.2 µM | 33.5 µM | 30.2 µM | 43.6 µM | 42.2 µM | 34.9 µM | 37.7 µM | 29.4 µM | 32.5 µM
CC(=O)N(CN1C(=O)CCC1C(=O)O)c1ccccc1 (stereo not given) | > 100 µM | > 100 µM | > 100 µM | > 100 µM | > 100 µM | > 100 µM | > 100 µM | > 100 µM | > 100 µM | > 100 µM
CCc1nnc(-n2c(C)nc3cc(Cl)ccc3c2=O)s1 | > 100 µM | > 100 µM | > 100 µM | 99.2 µM | > 100 µM | > 100 µM | > 100 µM | > 100 µM | 61.7 µM | > 100 µM
C/C(=C/CO[Si](C)(C)C(C)(C)C)C(=O)N(C)c1ccccc1I | 29.1 µM | 30.6 µM | 30 µM | 22.5 µM | 28.6 µM | 32.2 µM | 36.7 µM | 33.6 µM | 28 µM | 29.9 µM
COc1ccc(/C=C/c2cc(O)cc(OC)c2)cc1 | > 100 µM | > 100 µM | > 100 µM | > 100 µM | > 100 µM | > 100 µM | > 100 µM | > 100 µM | > 100 µM | > 100 µM
c1ccc(CCN2CCCCCC2)nc1 | > 100 µM | > 100 µM | > 100 µM | > 100 µM | > 100 µM | > 100 µM | > 100 µM | > 100 µM | > 100 µM | > 100 µM
COc1ccc(C2(c3ccc(OC)cc3)OC(=O)c3cccc4cccc2c34)cc1 | 29 µM | > 100 µM | > 100 µM | > 100 µM | > 100 µM | > 100 µM | > 100 µM | > 100 µM | > 100 µM | > 100 µM
CCCCC[C@@H]1OCO[C@@]2(C)/C=C(C)/C=C/C(=O)O[C@H]([C@@H](C)[C@@H](O)[C@H](C)[C@@]3(O)C[C@@H](O[C@H]4C[C@@H](O)[C@H](O)[C@@H](C)O4)[C@H](C)[C@@H](C)O3)[C@@H](OC)/C=C/C=C(\C)C[C@@H]1[C@@H]2O (stereo in doubt) | 3.07 µM | 7.78 µM | 5.3 µM | 0.0992 µM | < 0.005 µM | 7.38 µM | 7.9 µM | 5.36 µM | < 0.005 µM | 8.22 µM
CC(CCC(=O)O)[C@H]1CCC2[C@H]3C(CC[C@@]21C)[C@@]1(C)CCC(O)C[C@H]1C[C@@H]3O (stereo not given in full) | > 100 µM | > 100 µM | > 100 µM | > 100 µM | > 100 µM | > 100 µM | > 100 µM | > 100 µM | > 100 µM | > 100 µM
Cc1c2c3cc(O)ccc3nc-2n(C)c2ccccc12 | 6.91 µM | 15.1 µM | 5.11 µM | 5.21 µM | 4.6 µM | 10.6 µM | 14.3 µM | 5.28 µM | 3.21 µM | 8.92 µM
COC(=O)c1sc(=S)sc1SCc1ccccc1CSc1sc(=S)sc1C(=O)OC | > 100 µM | > 100 µM | > 100 µM | > 100 µM | > 100 µM | > 100 µM | > 100 µM | > 100 µM | > 100 µM | > 100 µM
C=CCC(CNC(=O)OCc1ccccc1)O[Si](C)(C)C(C)(C)C (stereo not given) | 74.9 µM | > 100 µM | > 100 µM | > 100 µM | > 100 µM | > 100 µM | > 100 µM | > 100 µM | > 100 µM | 84.3 µM
CC(NC(=O)/C(=C/c1ccccc1O)NC(=O)c1ccccc1)C(=O)O (stereo not given) | 88.2 µM | 55.2 µM | 64.9 µM | > 100 µM | > 100 µM | 29.1 µM | > 100 µM | > 100 µM | > 100 µM | > 100 µM
COC(=O)[C@H](C)N1C(=O)N[C@@H](C(C)C)C1=O | > 100 µM | > 100 µM | > 100 µM | > 100 µM | > 100 µM | > 100 µM | > 100 µM | > 100 µM | > 100 µM | > 100 µM
